In publication PMC3107544 (Biochemistry, 2010):
Like-named read-outs stand apart in the source and are kept apart here. Marks after values point to notes of the source that are not given here.

Assays:
P2Y purinergic receptor [1] = format: cell-based, RSK2+/+ mouse embryonic fibroblasts
P2Y purinergic receptor [2] = format: cell-based, RSK2−/− mouse embryonic fibroblasts
P2Y purinergic receptor [3] = format: cell-based, RSK2+/+ mouse embryonic fibroblasts; remark: listed apart in the source
P2Y purinergic receptor [4] = format: cell-based, RSK2−/− mouse embryonic fibroblasts; remark: listed apart in the source
P2Y purinergic receptor [5] = format: cell-based, RSK2−/− mouse embryonic fibroblasts; remark: listed apart in the source
P2Y purinergic receptor [6] = format: cell-based, RSK2+/+ mouse embryonic fibroblasts; remark: listed apart in the source
RSK2 = assay: Immunoprecipitation and immunoblot of RSK2 activation; format: cell-based, mouse; conditions: for maximal activation of RSK2 (sum pixel intensity normalized to total RSK2): RSK2+/+ MEFs, 5 min, EGF 100ng/mL or IGF-1 10nM
[7] = test system: 5-HT2A-mediated Ca^2+ responses; assay: Growth factor attenuation of 5-HT2A-mediated Ca^2+ responses in MEFs; format: cell-based, mouse
5-HT2A receptor [8] = target: T1, 5-HT2A receptor (Rattus norvegicus, UniProt P14842); format: cell-based; conditions: DOI 1μM, infected RSK2+/+ cortical neurons
5-HT2A receptor [9] = format: cell-based, rat; conditions: uninfected cortical neurons; DOI 1μM
5-HT2A receptor [10] = target: 5-HT2A receptor (Mus musculus, UniProt P35363); conditions: RSK2+/+ mVSMCs; 100nM
5-HT2A receptor [11] = target: T1, 5-HT2A receptor; assay: cell-based; conditions: for EC50: pEC50 ± SEM
IGF-1 R = IGF-1 R (Mus musculus, UniProt Q60751); assay: Immunoblot of IGF-1 R phosphorylation; format: cell-based; conditions: RSK2+/+ MEFs; 10 nM
P2Y purinergic receptor [12] = assay: FLIPR Tetra P2Y-mediated Ca^2+ responses in MEFs; format: cell-based, mouse; conditions: for EC50: read-out: potency (EC50)
[13] = test system: 5-HT2A-mediated Ca^2+ responses; assay: Growth factor attenuation of 5-HT2A-mediated Ca^2+ responses in mVSMCs; format: cell-based, mouse; conditions: saturating 5-HT 10μM, 60 min treatment
[14] = RSK2+/+ MEFs, EGF 100ng/mL 0 min (untreated)
[15] = RSK2+/+ MEFs, EGF 100ng/mL 60 min
[16] = RSK2−/− MEFs, EGF 100ng/mL 0 min (untreated)
[17] = RSK2−/− MEFs, EGF 100ng/mL 60 min

IGF-1 R, sequence (Q60751 31-737 limits assumed): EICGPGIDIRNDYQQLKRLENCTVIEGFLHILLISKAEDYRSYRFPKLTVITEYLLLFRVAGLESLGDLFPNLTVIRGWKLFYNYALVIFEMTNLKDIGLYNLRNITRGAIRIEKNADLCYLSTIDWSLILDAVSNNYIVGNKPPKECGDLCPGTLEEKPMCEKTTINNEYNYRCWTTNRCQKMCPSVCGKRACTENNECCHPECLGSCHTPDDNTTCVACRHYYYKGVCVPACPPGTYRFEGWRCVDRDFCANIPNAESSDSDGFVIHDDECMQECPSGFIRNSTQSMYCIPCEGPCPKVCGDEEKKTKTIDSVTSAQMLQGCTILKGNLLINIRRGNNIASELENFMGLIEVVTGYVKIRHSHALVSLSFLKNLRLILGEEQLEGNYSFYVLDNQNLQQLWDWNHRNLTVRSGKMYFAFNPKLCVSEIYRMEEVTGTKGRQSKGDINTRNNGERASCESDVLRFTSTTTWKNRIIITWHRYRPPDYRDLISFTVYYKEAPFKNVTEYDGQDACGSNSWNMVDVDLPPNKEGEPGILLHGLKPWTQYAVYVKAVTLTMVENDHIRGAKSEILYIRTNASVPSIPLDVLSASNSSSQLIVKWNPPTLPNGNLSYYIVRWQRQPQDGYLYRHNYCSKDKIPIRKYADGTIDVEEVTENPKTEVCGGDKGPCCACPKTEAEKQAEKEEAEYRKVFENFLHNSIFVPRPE
IGF-1 R, sequence (Q60751 742-1373 limits assumed): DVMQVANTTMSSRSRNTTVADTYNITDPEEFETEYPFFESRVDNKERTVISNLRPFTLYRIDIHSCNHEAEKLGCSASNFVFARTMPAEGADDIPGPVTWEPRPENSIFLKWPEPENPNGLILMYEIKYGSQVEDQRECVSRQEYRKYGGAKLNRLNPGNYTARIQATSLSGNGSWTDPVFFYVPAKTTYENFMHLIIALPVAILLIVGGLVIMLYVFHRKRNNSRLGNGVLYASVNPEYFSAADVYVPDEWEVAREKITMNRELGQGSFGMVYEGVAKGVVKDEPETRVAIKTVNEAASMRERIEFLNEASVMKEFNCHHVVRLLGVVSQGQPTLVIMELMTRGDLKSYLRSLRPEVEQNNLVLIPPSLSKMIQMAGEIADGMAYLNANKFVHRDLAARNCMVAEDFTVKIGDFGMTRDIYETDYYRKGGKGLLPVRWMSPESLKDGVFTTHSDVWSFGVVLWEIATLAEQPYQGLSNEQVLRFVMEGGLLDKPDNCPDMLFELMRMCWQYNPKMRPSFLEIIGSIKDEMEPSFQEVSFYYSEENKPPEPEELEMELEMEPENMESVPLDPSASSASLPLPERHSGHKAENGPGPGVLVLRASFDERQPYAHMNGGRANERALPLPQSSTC
5-HT2A receptor (Mus musculus, UniProt P35363), sequence (P35363 whole entry): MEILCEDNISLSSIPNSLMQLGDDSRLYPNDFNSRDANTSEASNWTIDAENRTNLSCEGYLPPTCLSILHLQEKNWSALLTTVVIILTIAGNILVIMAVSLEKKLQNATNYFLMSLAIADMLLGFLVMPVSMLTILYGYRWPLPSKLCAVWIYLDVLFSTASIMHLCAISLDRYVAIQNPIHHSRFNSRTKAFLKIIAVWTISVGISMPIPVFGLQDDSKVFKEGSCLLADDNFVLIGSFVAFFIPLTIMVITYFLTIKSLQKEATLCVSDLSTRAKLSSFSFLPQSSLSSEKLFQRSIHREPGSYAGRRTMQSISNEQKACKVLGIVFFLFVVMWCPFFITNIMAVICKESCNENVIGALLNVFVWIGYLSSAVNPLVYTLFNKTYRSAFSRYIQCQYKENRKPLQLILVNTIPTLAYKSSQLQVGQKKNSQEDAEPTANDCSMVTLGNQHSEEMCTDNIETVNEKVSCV

Nc1ncnc2c1ncn2[C@@H]1O[C@H](COP(=O)(O)OP(=O)(O)OP(=O)(O)O)[C@@H](O)[C@H]1O [ATP, adenosine 5'-triphosphate]
RSK2+/+ MEFs, 0 min, pEC50 ± SEM (P2Y purinergic receptor [1]): 5.16 +/− 0.05 | RSK2−/− MEFs, 60 min, pEC50 ± SEM (P2Y purinergic receptor [2]): 5.30 +/− 0.09 | RSK2+/+ MEFs, 30 min, pEC50 ± SEM (P2Y purinergic receptor [3]): 4.95 +/− 0.06 ^d | RSK2−/− MEFs, 0 min, pEC50 ± SEM (P2Y purinergic receptor [4]): 5.37 +/− 0.09 | RSK2−/− MEFs, 30 min, pEC50 ± SEM (P2Y purinergic receptor [5]): 5.34 +/− 0.09 | RSK2+/+ MEFs, 60 min, pEC50 ± SEM (P2Y purinergic receptor [6]): 4.88 +/− 0.09 ^d

insulin: insulin, tested for attenuation of 5-HT2A receptor signaling in MEFs
activation of RSK2 (RSK2; MEFs, data not shown): modest activation | effect on 5-HT2A receptor signaling ([7]; MEFs, data not shown): no effect

COc1cc(CC(C)N)c(OC)cc1I.Cl (racemic) [DOI, (±)-2,5-dimethoxy-4-iodoamphetamine hydrochloride]
Area under curve (5-HT2A receptor [8]; EGF 100ng/mL 60 min): 20.9 +/− 1.2 ^b | Area under curve (5-HT2A receptor [8]; NRG-1 100ng/mL): 28.6 +/− 1.7 ^b | Area under curve (5-HT2A receptor [8]; RTK ligand None): 33.7 +/− 1.3 | Ca^2+ response in uninfected neurons (5-HT2A receptor [9]): unresponsive

COc1cccc([C@H](O)C2CCN(CCc3ccc(F)cc3)CC2)c1OC [MDL100907]
block of 5-HT-elicited Ca^2+ responses (5-HT2A receptor [10]): blocked

COc1ccc2[nH]cc(CCN(C)C)c2c1 [5-methoxy DMT, 5-methoxy-N,N-dimethyltryptamine]
EC50 (5-HT2A receptor [11]; [14]): 25.7 nM | EC50 (5-HT2A receptor [11]; [15]): 67.6 nM | EC50 (5-HT2A receptor [11]; [16]): 89.1 nM | EC50 (5-HT2A receptor [11]; [17]): 89.1 nM | Emax (5-HT2A receptor [11]; read-out: Emax± SEM, %, RSK2+/+ MEFs, EGF 100ng/mL 0 min (untreated)): 86.7% | Emax (5-HT2A receptor [11]; read-out: Emax± SEM, %, RSK2+/+ MEFs, EGF 100ng/mL 60 min): 79.6% | Emax (5-HT2A receptor [11]; read-out: Emax± SEM, %, RSK2−/− MEFs, EGF 100ng/mL 0 min (untreated)): 80.4% | Emax (5-HT2A receptor [11]; read-out: Emax± SEM, %, RSK2−/− MEFs, EGF 100ng/mL 60 min): 79.1%

IGF-1: insulin-like growth factor 1, activates the IGF-1 R
maximal activation of RSK2 (sum pixel intensity normalized to total RSK2) (RSK2): 0.546 × 10^6 +/− 0.107 × 10^6 | activation of IGF-1 R (Tyr(P)1158/1162/1163) (IGF-1 R): activated

EGF: human epidermal growth factor, canonical EGFR agonist
maximal activation of RSK2 (sum pixel intensity normalized to total RSK2) (RSK2): 1.25 × 10^6 +/− 0.25 × 10^6 | IC50 for attenuation of 5-HT2A-mediated Ca^2+ responses ([7]; RSK2+/+ MEFs): 1.3 ng/mL | peak Ca^2+ release ([7]; RSK2+/+ MEFs, 10nM 5-HT, 100ng/mL EGF 1hr, parallel control of IGF-1 experiments): 80.7 +/− 2.3%

TGF-α: transforming growth factor-alpha, selective and potent EGFR agonist
IC50 for attenuation of 5-HT2A-mediated Ca^2+ responses ([7]; RSK2+/+ MEFs): 4.1 ng/mL

Nc1ncnc2c1ncn2[C@@H]1O[C@H](COP(=O)(O)OP(=O)(O)OP(=O)(O)O)[C@@H](O)[C@H]1O [ATP]
Emax± SEM, % (P2Y purinergic receptor [12]; [14]): 99.7 +/− 2.0% | Emax± SEM, % (P2Y purinergic receptor [12]; RSK2+/+ MEFs, EGF 100ng/mL 30 min): 88.4 +/− 2.5 ^d % | Emax± SEM, % (P2Y purinergic receptor [12]; [15]): 82.5 +/− 3.2 ^d % | Emax± SEM, % (P2Y purinergic receptor [12]; [16]): 98.6 +/− 3.3% | Emax± SEM, % (P2Y purinergic receptor [12]; RSK2−/− MEFs, EGF 100ng/mL 30 min): 93.4 +/− 3.2% | Emax± SEM, % (P2Y purinergic receptor [12]; [17]): 100 +/− 3.5% | EC50 (P2Y purinergic receptor [12]; RSK2+/+ MEFs, 60 min EGF treatment): 13000 nM | EC50 (P2Y purinergic receptor [12]; RSK2+/+ MEFs, untreated): 7000 nM

B1: PDGF-BB: human platelet-derived growth factor BB, PDGFR ligand (protein, UniProt P01127 82-190, looked up)
Platelet-derived growth …: SLGSLTIAEPAMIAECKTRTEVFEISRRLIDRTNANFLVWPPCVEVQRCSGCCNNRNVQCRPTQVQLRPVQVRKIEIVRKKPIFKKATVTLEDHLACKCETVAAARPVT
peak Ca^2+ release ([13]; RSK2+/+ cells): 67.0 +/− 8.5% | peak Ca^2+ release ([13]; RSK2−/− cells): 77.9 +/− 7.6%
